Columns and labels:
Wistar rats = assay: Anticonflict test (water drinking behavior under electroshock); assay type: in vivo; settings: oral; for Relieving rate of anxiety: one hour before experiment, male Wistar rats; for anxiolytic effect (in words): dose of 1.0 mg/kg
Description: Wistar rats (males weighing 140 to 160 g) were used for experiment in groups of 11 to 14.
Compound 1'a-1, 1'a-5, 1'b-1, 1'''-8, 1'''-9, the above comparison compound, diazepam or buspirone was suspended in a 0.5 % sodium carboxymethyl cellulose solution, and the suspension was orally given to the animal in a volume of 5 ml/kg one hour before the start of experiment.
With reference to a method described in "Process in Anxiolytics and Antidepressants," edited by Showa Ueki and Tatsuo Furukawa, Ishiyaku Shuppansha, 56∼ 59 (1981), the agents were tested using experimental boxes having grid floor and a metal drinking tube in the floor. No water was supplied to the rats for 48 hours before the experiment. Upon lapse of first 24 hours, each group of rats were placed into the experimental box, permitted access to water for 30 seconds and caused to recognize the metal drinking tube. Upon lapse of further 24 hours with access to water prevented, the rats were placed into the box again and permitted access to water on condition that an electric current was passed between the metal drinking tube and the grid to give an electroshock for every 20 times of water drinking behavior to measure the frequency of water drinking behavior for 3 minutes. Anxiolytic effect was evaluated as relieving rate of anxiety as calculated by the following equation. Relieving rate of anxiety = (C-B)/(A-B) × 100 [formula] • A: Frequency of water drinking behavior of a control group without an electroshock and no anxiety (frequency under no punishment) • B: Frequency of water drinking behavior of a group with an electroshock and anxiety (under punishment) and having been administerd a solvent containing no test compound (frequency under solvent-control group) • C: Frequency of water drinking behavior of a group having been administered a test compound and relieved anxiety (frequency under test compound-administered group) Table 7

ddY mice [1] = assay: Anticonvulsant effect (pentylenetetrazol-induced convulsion method); assay type: in vivo; settings: for ED50: Mus musculus, po, 1 h, read-out: ED50 (anticonvulsant effect); for anticonvulsant effect: dose of 300 mg/kg, oral, male ddY mice
Description: (§1) Compound 1'a-1, the comparison compound, diazepam or buspirone was suspended in a 0.5 % sodium carboxymethyl cellulose solution, and the suspension was orally administered to 3- to 4-week-old male ddY mice (in groups of 6) in a volume of 10 ml/kg one hour before the start of experiment.
The test was conducted with reference to a method described in "Evaluation of Medicinal Efficacies (1), Pharmacological Test Method (I), Basic Lectures on Development of Pharmaceuticals," 167∼ 172(1971).

ddY mice [2] = assay: Acute toxicity test; assay type: in vivo; settings: oral, 6 male ddY mice, observed for 3 days
Description: Five-week-old male ddY mice were used in groups of 6. […]

ddY mice [3] = settings: mouse, in vivo, po, 300 mg/kg
Description: (§2) Compound 1'a-1, the comparison compound, diazepam or buspirone was suspended in a 0.5 % sodium carboxymethyl cellulose solution, and the suspension was orally administered to 3- to 4-week-old male ddY mice (in groups of 5) in a volume of 10 ml/kg one hour before the start of experiment.
The test was conducted with reference to a method described in "Evaluation of Medicinal Efficacies (1), Pharmacological Test Method (I ), Basic Lectures on Development of Pharmaceuticals," 50∼ 54(1971). More specifically, the group of mice were given the test drug and thereafter measured the amount of spontaneous locomotor activity for 10 minutes per mouse using Animex MK-110 (Muromachi Kikai Co., Ltd.).

ddY mice [4] = settings: mouse, in vivo, po, 300 mg/kg; remark: listed apart in the source
Description: as §1
The test was conducted with reference to a method described in Japan. J. Pharmacol., 49, 337∼ 349(1989). More specifically, the group of mice were intraperitoneally given 25 % ethanol at a dose of 20 ml/kg and checked for the time interval between loss and recovery of the righting reflex.

ddY mice [5] = settings: mouse, in vivo, po, 300 mg/kg; remark: listed apart in the source
Description: as §2
With reference to a method described in Japan. J. Pharmacol., 49. 337∼ 349(1989), the foreleg of the mouse was hung on a horizontal wire, having a diameter of 1.2 mm and fixed at a level of 30 cm, three times consecutively. […] Thus, ED50 was determined for evaluation.

## O=C1CC2(CCCC2)CC(=O)N1CCCCN1CCN(c2ncccn2)CC1 [Buspirone]
Wistar rats; dose 1.0 mg/kg
  Relieving rate of anxiety: 2%
Wistar rats
  anxiolytic effect (in words): almost ineffective
ddY mice [1]
  ED50: ≥ 300 mg/kg

## COc1ccc(C(=O)N2C(=O)CC[C@H]3[C@H](O)CC[C@H]32)cc1 (racemic) [Compound 1'a-1, (1RS, 6RS, 7RS)-7-hydroxy-2-(4-methoxybenzoyl)-2-azabicyclo-[4.3.0]nonan-3-one]
ddY mice [2]; dose 2000 mg/kg
  Number of death: 0
ddY mice [2]; dose 3000 mg/kg
  Number of death: 2
ddY mice [3]
  sedative effect: no sedative effect
Wistar rats; dose 0.01 mg/kg
  Relieving rate of anxiety: 93%
Wistar rats; dose 0.1 mg/kg
  Relieving rate of anxiety: 86%
Wistar rats; dose 1.0 mg/kg
  Relieving rate of anxiety: 76%
ddY mice [1]
  anticonvulsant effect: no anticonvulsant effect
ddY mice [4]
  ethanol enhancing effect: no ethanol enhancing effect
ddY mice [5]
  muscle relaxant effect: no muscle relaxant effect

## CN1C(=O)CN=C(c2ccccc2)c2cc(Cl)ccc21 [Diazepam]
Wistar rats; dose 1.0 mg/kg
  Relieving rate of anxiety: -3%
Wistar rats
  anxiolytic effect (in words): almost ineffective
ddY mice [1]
  ED50: 0.35 mg/kg

## O=C1CC2CCCCC2N1 (stereo not shown) [Comparison Compound, 2-azabicyclo[3.4.0]nonane-3-one]
ddY mice [2]; dose 2000 mg/kg
  Number of death: 1
ddY mice [2]; dose 3000 mg/kg
  Number of death: 5
ddY mice [3]
  sedative effect: no sedative effect
Wistar rats; dose 0.01 mg/kg
  Relieving rate of anxiety: 43%
Wistar rats; dose 0.1 mg/kg
  Relieving rate of anxiety: 44%
Wistar rats; dose 1.0 mg/kg
  Relieving rate of anxiety: 46%
Wistar rats; doses of 0.01 to 0.1 mg/kg
  decreased anxiety: up to 50%
ddY mice [1]
  anticonvulsant effect: no anticonvulsant effect
ddY mice [4]
  ethanol enhancing effect: no ethanol enhancing effect
ddY mice [5]
  muscle relaxant effect: no muscle relaxant effect

— patent EP0790237B1, “BICYCLOLACTAM COMPOUNDS, USE OF THE SAME AND INTERMEDIATE IN THE PRODUCTION OF THE SAME” (TAIHO PHARMACEUTICAL CO., LTD., priority 1995, dated 1996)
